Source: ChEMBL document CHEMBL6103591, “Discovery of naphthoquinone-furo-piperidone derivatives as dual targeting agents of STAT3 and NQO1 for the treatment of breast cancer” (Eur J Med Chem, 2025)
Activity calls are given as the source filed them. The calls are words filed in the database; no cut-off is given here.

Experiments:
MDA-MB-231 [1] = assay: Antiproliferative activity against human MDA-MB-231 cells assessed as reduction in cell viability incubated for 48 hrs by MTT assay; assay type: functional, cell-based; conditions: MDA-MB-231, 48 h
MDA-MB-468 [2] = assay: Antiproliferative activity against human MDA-MB-468 cells assessed as reduction in cell viability incubated for 48 hrs by MTT assay; assay type: functional, cell-based; conditions: MDA-MB-468, 48 h
MDA-MB-231 [3] = assay: Induction of apoptosis in human MDA-MB-231 cells assessed as early apoptotic cells at 3 uM measured after 24 hrs by Annexin V/propidium iodide (PI) double staining based flow cytometric analysis (reference value: 1.98 %); assay type: functional
MDA-MB-231 [4] = assay: Induction of apoptosis in human MDA-MB-231 cells assessed as late apoptotic cells at 3 uM measured after 24 hrs by Annexin V/propidium iodide (PI) double staining based flow cytometric analysis (reference value: 2.22 %); assay type: functional
MDA-MB-468 [5] = assay: Induction of apoptosis in human MDA-MB-468 cells assessed as early apoptotic cells at 3 uM measured after 24 hrs by Annexin V/propidium iodide (PI) double staining based flow cytometric analysis (reference value: 2.94 %); assay type: functional
MDA-MB-468 [6] = assay: Induction of apoptosis in human MDA-MB-468 cells assessed as late apoptotic cells at 3 uM measured after 24 hrs by Annexin V/propidium iodide (PI) double staining based flow cytometric analysis (reference value: 2.24 %); assay type: functional
[7] = biological target: Signal transducer and activator of transcription 3 (Homo sapiens, UniProt P40763); assay: Inhibition of STAT3 activation in human MDA-MB-231 cells assessed as reduction in STAT3 phosphorylation at Tyr705 residue at 1 uM measured after 24 hrs by Western blot analysis relative to control; assay type: cell-based
Sequence of Signal transducer and activator of transcription 3 (P40763 whole entry): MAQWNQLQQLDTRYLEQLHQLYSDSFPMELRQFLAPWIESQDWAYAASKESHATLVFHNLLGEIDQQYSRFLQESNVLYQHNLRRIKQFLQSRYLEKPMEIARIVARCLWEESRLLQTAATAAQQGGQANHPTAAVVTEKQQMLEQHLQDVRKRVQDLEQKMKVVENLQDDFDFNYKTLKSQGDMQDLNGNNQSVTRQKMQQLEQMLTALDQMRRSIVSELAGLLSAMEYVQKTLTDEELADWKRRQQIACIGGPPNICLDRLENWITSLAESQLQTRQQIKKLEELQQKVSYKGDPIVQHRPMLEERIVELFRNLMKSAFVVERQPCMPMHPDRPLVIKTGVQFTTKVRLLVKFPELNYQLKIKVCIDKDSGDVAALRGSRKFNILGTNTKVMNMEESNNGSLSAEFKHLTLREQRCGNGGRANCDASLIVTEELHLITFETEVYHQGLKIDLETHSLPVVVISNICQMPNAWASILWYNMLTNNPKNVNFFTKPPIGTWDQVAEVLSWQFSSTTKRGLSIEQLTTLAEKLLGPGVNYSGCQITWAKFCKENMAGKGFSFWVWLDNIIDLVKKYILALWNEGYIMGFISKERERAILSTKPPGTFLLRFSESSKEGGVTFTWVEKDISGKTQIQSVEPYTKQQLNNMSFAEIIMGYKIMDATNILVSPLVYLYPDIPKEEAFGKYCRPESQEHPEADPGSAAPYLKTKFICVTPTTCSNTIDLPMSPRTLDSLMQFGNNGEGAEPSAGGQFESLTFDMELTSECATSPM

MDA-MB-231 [8] = assay: Downregulation of total STAT3 expression in human MDA-MB-231 cells at 1 uM incubated for 24 hrs by Western blotting analysis; assay type: functional, cell-based
MCF7 = assay: Antiproliferative activity against human MCF7 cells incubated for 48 hrs by MTT assay; assay type: functional, cell-based; conditions: MCF7, 48 h

SMILES | IC50 (MDA-MB-231 [1]) [µM] | IC50 (MDA-MB-468 [2]) [µM] | also measured
COC(=O)[C@H](Cc1ccc(O)cc1)N1CCc2c(oc3c2C(=O)C(=O)c2ccccc2-3)C1=O | 3.33 | 2.43 | 
CC(=O)c1cc2c(o1)C(=O)c1ccccc1C2=O [NAPABUCASIN] | 3.5 | 3.59 | Activity (MDA-MB-231 [3]): 3.34%; Activity (MDA-MB-231 [4]): 6.23%; Activity (MDA-MB-468 [5]): 8.87%; Activity (MDA-MB-468 [6]): 6%
O=C1C(=O)c2c(oc3c2CCN(CCCCO)C3=O)-c2ccccc21 | 2.29 | 3.07 | 
C[C@@H](C(N)=O)N1CCc2c(oc3c2C(=O)C(=O)c2ccccc2-3)C1=O | 3.51 | 2.89 | 
COC(=O)[C@H](CC(C)C)N1CCc2c(oc3c2C(=O)C(=O)c2ccccc2-3)C1=O | 2.44 | 2.66 | 
COC(=O)CCCN1CCc2c(oc3c2C(=O)C(=O)c2ccccc2-3)C1=O | 2.51 | 2.37 | 
COC(=O)[C@H](CO)N1CCc2c(oc3c2C(=O)C(=O)c2ccccc2-3)C1=O | 3.78 | 1.46 | 
O=CN1CCN(CCCN2CCc3c(oc4c3C(=O)C(=O)c3ccccc3-4)C2=O)CC1 | 3.27 | 3.69 | 
CC1(C)CCC2=C(O1)c1ccccc1C(=O)C2=O [LAPACHONE] |  |  | IC50 (MCF7): 3.99 µM
O=C1C(=O)c2c(oc3c2CCN([C@H](CO)CCCO)C3=O)-c2ccccc21 | > 4 | > 4 | 
O=C1C(=O)c2c(oc3c2CCN(CCCn2ccnc2)C3=O)-c2ccccc21 | 2.94 | 2.37 | 
COC(=O)CC[C@@H](C(=O)OC)N1CCc2c(oc3c2C(=O)C(=O)c2ccccc2-3)C1=O | 3.48 | 2.37 | 
O=C1C(=O)c2c(oc3c2CCN(CCC(=O)N2CCOCC2)C3=O)-c2ccccc21 | 3.05 | 2.24 | 
CC(C)C[C@@H](CO)N1CCc2c(oc3c2C(=O)C(=O)c2ccccc2-3)C1=O | 2.49 | 2.45 | 
CNC(=O)[C@H](CC(C)C)N1CCc2c(oc3c2C(=O)C(=O)c2ccccc2-3)C1=O | 1.93 | 2.32 | 
CNC(=O)[C@H](C)N1CCc2c(oc3c2C(=O)C(=O)c2ccccc2-3)C1=O | 2.62 | 1.38 | 
O=C1C(=O)c2c(oc3c2CCN([C@H](CO)Cc2ccc(O)cc2)C3=O)-c2ccccc21 | > 4 | 2.62 | 
CNC(=O)[C@H](Cc1ccccc1)N1CCc2c(oc3c2C(=O)C(=O)c2ccccc2-3)C1=O | 3.07 | 2.55 | 
COC(=O)CCN1CCc2c(oc3c2C(=O)C(=O)c2ccccc2-3)C1=O | 2.53 | 2.42 | 
O=C1C(=O)c2c(oc3c2CCN(CCC(=O)N2CCCCC2)C3=O)-c2ccccc21 | 3.69 | 2.5 | 
CCN(CC)CCn1ccc2c3c(oc2c1=O)-c1ccccc1C(=O)C3=O | 1.84 | 1.18 | 
C[C@@H]1CN(CCCN2CCc3c(oc4c3C(=O)C(=O)c3ccccc3-4)C2=O)C[C@H](C)N1 | > 4 | 2.49 | 

Continued by falling IC50 (MDA-MB-231 [1]), values first:

IC50 (MDA-MB-231 [1]) [µM] | IC50 (MDA-MB-468 [2]) [µM] | SMILES | also measured
1.5 | 1.55 | COC(=O)CN1CCc2c(oc3c2C(=O)C(=O)c2ccccc2-3)C1=O | 
1.3 | 0.41 | CN1CCN(CCN2CCc3c(oc4c3C(=O)C(=O)c3ccccc3-4)C2=O)CC1 | 
1.23 | 1.29 | O=C1C(=O)c2c(oc3c2CCN(C2CCC(N4CCOCC4)CC2)C3=O)-c2ccccc21 (stereo not drawn) | 
1.14 | 2.23 | O=C1C(=O)c2c(oc3c2CCN(CCCO)C3=O)-c2ccccc21 | 
1.08 | 1.96 | O=C1C(=O)c2c(oc3c2CCN(CCN2CCOCC2)C3=O)-c2ccccc21 | 
0.93 | 2.42 | COC(=O)[C@H](Cc1ccccc1)N1CCc2c(oc3c2C(=O)C(=O)c2ccccc2-3)C1=O | 
0.93 | 2.42 | O=C1C(=O)c2c(oc3c2CCN([C@H](CO)Cc2ccccc2)C3=O)-c2ccccc21 | 
0.92 | 1.46 | O=C1C(=O)c2c(oc3c2CCN(CCCN2CC4(COC4)C2)C3=O)-c2ccccc21 | 
0.91 | 1.33 | O=C1C(=O)c2c(oc3c2CCN(CCCN2CCCC2)C3=O)-c2ccccc21 | 
0.88 | 0.63 | O=C1C(=O)c2c(oc3c(=O)n(CCN4CCCCC4)ccc23)-c2ccccc21 | 
0.84 | 1.21 | CN(C)CCn1ccc2c3c(oc2c1=O)-c1ccccc1C(=O)C3=O | 
0.8 | 1.72 | C[C@H]1CN(CCCN2CCc3c(oc4c3C(=O)C(=O)c3ccccc3-4)C2=O)CCO1 | 
0.75 | 0.77 | CN1CCN(CCCN2CCc3c(oc4c3C(=O)C(=O)c3ccccc3-4)C2=O)CC1 | 
0.75 | 1.43 | O=C1C(=O)c2c(oc3c2CCN(CCO)C3=O)-c2ccccc21 | 
0.74 | 1.24 | O=C1C(=O)c2c(oc3c2CCN(CCCN2CCOCC2)C3=O)-c2ccccc21 | 
0.74 | 1.43 | CN(C)CCCN1CCc2c(oc3c2C(=O)C(=O)c2ccccc2-3)C1=O | 
0.68 | 1.58 | C[C@@H]1CN(CCCN2CCc3c(oc4c3C(=O)C(=O)c3ccccc3-4)C2=O)CCO1 | 
0.68 | 1.21 | COC(=O)[C@H](C)N1CCc2c(oc3c2C(=O)C(=O)c2ccccc2-3)C1=O | 
0.65 | 1.07 | CCN(CC)CCCN1CCc2c(oc3c2C(=O)C(=O)c2ccccc2-3)C1=O | inhibition [7]: Active
0.64 | 1.31 | C[C@@H](CO)N1CCc2c(oc3c2C(=O)C(=O)c2ccccc2-3)C1=O | 
0.61 | 1.31 | CCN(CC)CCN1CCc2c(oc3c2C(=O)C(=O)c2ccccc2-3)C1=O | inhibition [7]: Active
0.54 | 1.56 | CN(C)CCN1CCc2c(oc3c2C(=O)C(=O)c2ccccc2-3)C1=O | inhibition [7]: Active
0.33 | 1.2 | O=C1C(=O)c2c(oc3c2CCN(CCCN2CCCCC2)C3=O)-c2ccccc21 | inhibition [7]: 100%; Activity (MDA-MB-231 [8]): Active
